In experiment [1] the target is CtermHisTag-mEGFR Triple Mutant - C797S, L858R, T790M (Homo sapiens, UniProt P00533, C797S/L858R/T790M). The experiment in a line: TR-FRET probe displacement assay, EGFR triple mutant. Format: binding. Particulars: T790M 1.25 nM, probe 100 nM, 30 mins room temperature. In a few lines: (§1)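 Ten-point compound series, 100000 to 3 nM final, tested against His-tagged EGFR (wild type or C797S/L858R/T790M) for probe displacement. TR-FRET read at Ex337 nm, Em490/520 nm; run in technical replicate, biological duplicate.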
Sequence of CtermHisTag-mEGFR Triple Mutant - C797S, L858R, T790M (P00533 25-1210 T790M/C797S/L858R): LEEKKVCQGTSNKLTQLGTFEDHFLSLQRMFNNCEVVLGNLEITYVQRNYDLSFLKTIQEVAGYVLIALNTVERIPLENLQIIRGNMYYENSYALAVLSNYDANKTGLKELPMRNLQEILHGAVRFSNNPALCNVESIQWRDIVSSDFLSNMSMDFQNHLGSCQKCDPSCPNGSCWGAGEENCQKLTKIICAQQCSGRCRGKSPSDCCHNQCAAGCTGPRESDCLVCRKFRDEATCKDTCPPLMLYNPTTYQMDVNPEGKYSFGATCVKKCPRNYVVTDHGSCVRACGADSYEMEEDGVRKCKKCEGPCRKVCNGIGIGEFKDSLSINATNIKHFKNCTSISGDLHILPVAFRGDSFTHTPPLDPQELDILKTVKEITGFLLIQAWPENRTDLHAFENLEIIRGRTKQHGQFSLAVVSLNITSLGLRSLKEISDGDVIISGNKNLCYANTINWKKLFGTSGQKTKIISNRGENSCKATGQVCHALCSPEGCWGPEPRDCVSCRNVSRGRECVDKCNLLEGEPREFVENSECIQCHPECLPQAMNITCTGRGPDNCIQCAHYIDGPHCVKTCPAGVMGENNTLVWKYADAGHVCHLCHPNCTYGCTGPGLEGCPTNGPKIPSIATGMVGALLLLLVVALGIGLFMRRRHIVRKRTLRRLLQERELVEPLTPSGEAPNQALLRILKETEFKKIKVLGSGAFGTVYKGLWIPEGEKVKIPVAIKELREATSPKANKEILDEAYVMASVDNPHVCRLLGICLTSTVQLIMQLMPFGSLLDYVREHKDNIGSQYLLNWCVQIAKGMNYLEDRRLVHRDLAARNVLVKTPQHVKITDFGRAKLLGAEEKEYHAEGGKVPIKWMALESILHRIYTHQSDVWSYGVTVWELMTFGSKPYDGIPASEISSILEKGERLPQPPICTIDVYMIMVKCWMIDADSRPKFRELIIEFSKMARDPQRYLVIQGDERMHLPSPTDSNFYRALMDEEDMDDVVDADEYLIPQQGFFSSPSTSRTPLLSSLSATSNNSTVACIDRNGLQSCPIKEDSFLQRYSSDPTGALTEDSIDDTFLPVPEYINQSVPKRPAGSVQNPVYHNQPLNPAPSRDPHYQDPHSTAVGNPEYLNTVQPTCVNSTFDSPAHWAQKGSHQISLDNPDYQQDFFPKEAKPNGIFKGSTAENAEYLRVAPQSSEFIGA

The target of experiment [2] is T1, Phospho-EGFR (Tyr1068) in A431 cells (Homo sapiens, UniProt P00533).
T1 construct: endogenous in cells; host or cells: A431
Put plainly: HTRF pEGFR/total EGFR assay in A431 cells (EGF stimulated). Format: cell-based. The following applies: compound 2.5 hours then 100 ng/ml EGF 30 mins, ratio pEGFR/total EGFR. In a few lines:
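A431 cells pretreated with compounds 2.5 h (0.1% DMSO), then stimulated with 100 ng/ml EGF for 30 min. Lysates assayed by HTRF for phospho-EGFR (Tyr1068) and total EGFR, read at 665/620 nm. Values are pEGFR/total EGFR ratio as percentage of 0uM control.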
(TR-FRET usually uses a lanthanide donor and a delayed reading to cut background.)

In experiment [3] the target is CtermHisTag-mEGFR Wild type (Homo sapiens, UniProt P00533). Put plainly: TR-FRET probe displacement assay, EGFR wild type. Format: binding. The following applies: EGFR wild type 1.25 nM, probe 100 nM, 30 mins room temperature. In a few lines: as §1
Sequence of CtermHisTag-mEGFR Wild type (P00533 25-1210): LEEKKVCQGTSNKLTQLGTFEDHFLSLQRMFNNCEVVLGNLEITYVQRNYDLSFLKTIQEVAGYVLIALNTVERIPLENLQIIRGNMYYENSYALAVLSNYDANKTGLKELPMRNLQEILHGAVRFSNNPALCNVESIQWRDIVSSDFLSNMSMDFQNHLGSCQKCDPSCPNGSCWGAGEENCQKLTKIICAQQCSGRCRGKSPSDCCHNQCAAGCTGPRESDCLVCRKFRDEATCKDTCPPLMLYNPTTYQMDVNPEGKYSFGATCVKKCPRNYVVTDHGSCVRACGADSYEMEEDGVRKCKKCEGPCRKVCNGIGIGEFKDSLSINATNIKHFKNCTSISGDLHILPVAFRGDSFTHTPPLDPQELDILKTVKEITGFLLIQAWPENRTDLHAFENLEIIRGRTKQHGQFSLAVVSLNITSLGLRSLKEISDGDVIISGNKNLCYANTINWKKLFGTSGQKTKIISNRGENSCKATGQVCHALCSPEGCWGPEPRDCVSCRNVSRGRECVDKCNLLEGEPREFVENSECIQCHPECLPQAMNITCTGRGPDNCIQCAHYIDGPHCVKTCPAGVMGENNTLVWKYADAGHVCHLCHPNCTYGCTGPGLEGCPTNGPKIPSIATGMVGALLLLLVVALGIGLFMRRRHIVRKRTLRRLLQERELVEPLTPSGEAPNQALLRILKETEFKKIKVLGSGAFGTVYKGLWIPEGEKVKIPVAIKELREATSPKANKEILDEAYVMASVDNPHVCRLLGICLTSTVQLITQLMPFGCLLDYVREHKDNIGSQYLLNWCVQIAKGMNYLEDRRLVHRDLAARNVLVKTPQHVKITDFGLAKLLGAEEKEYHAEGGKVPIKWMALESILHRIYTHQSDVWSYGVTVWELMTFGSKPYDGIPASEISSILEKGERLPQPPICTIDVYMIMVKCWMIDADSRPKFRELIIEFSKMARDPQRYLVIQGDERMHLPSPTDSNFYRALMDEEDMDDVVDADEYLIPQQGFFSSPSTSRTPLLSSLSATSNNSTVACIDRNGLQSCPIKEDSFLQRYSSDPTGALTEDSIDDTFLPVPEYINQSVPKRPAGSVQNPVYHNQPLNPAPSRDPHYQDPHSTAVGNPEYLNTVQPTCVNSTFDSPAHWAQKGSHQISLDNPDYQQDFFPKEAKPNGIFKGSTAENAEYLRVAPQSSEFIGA
Experiment [4] addresses T2, Phospho-EGFR (Tyr1068) in H1975 cells (Homo sapiens, UniProt P00533, L858R/T790M).
T2 construct: host or cells: H1975
Put plainly: HTRF pEGFR/total EGFR assay in H1975 cells. The following applies: compound 3 hours, ratio pEGFR/total EGFR. Format: cell-based. The method in brief: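 H1975 cells (EGFR L858R/T790M) adhered 24 h, then compound-treated for 3 h in duplicate, 0.1% DMSO final. Lysates read by HTRF at 665/620 nm for phospho-Tyr1068 and total EGFR. Value is pEGFR/total EGFR ratio as % of 0 uM control.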

The target in experiment [5] is T3, Phospho-EGFR (Tyr1068) in H1975 C797S cells (Homo sapiens, UniProt P00533, C797S/L858R/T790M).
T3 construct: endogenous in cells; host or cells: H1975 C797S (CRISPR-edited in house from ATCC CRL-5908)
T3 sequence (P00533 25-1210 T790M/C797S/L858R): as the sequence (P00533 25-1210 T790M/C797S/L858R) above
The experiment in a line: HTRF pEGFR/total EGFR assay in H1975 C797S cells. Format: cell-based. Particulars: H1975 C797S cells (CRISPR), compound 3 hours, ratio pEGFR/total EGFR. The method in brief: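 H1975 cells carrying CRISPR-engineered EGFR C797S (with L858R/T790M) were exposed to compounds for 3 h at 0.1% DMSO, in duplicate. Lysates were read with HTRF kits for pEGFR Tyr1068 and total EGFR at 665/620 nm. Values are the pEGFR/total EGFR ratio as percent of the 0 uM control.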

T2 sequence (P00533 25-1210 T790M/L858R): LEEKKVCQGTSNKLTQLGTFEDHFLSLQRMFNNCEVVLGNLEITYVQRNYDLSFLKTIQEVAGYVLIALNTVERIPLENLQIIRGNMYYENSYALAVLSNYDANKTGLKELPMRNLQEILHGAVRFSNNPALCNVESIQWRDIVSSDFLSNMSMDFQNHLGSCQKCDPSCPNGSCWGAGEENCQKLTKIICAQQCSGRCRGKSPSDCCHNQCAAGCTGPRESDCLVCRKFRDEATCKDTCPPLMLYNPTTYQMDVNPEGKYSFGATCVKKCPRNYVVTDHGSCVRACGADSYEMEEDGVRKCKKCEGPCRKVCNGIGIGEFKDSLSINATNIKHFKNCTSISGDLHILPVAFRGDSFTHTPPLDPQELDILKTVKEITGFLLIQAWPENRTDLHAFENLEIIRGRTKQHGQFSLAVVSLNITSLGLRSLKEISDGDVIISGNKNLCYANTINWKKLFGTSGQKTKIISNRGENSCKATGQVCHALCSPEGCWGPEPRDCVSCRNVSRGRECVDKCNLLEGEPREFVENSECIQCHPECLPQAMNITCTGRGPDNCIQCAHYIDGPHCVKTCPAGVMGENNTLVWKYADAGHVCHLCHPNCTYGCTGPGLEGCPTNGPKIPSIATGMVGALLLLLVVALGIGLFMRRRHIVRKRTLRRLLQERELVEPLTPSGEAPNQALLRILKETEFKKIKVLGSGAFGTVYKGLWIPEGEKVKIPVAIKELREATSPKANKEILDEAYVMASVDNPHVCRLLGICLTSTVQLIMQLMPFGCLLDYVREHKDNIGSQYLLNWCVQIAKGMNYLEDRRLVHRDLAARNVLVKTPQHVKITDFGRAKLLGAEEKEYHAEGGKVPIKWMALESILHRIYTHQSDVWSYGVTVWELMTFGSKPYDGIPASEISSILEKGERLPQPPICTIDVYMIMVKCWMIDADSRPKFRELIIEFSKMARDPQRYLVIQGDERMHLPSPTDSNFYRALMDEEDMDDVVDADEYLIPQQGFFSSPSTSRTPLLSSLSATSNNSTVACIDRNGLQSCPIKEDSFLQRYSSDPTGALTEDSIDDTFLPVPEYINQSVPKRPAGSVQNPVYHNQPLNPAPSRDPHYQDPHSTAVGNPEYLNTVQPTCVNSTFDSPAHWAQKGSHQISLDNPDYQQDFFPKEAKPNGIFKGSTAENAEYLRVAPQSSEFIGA

Consider `C#Cc1cc(NC(=O)NC2CCCC2)nc2nc(Nc3ccc(S(=O)(=O)N(C)CCN(C)C)cc3)ncc12` [Example 84], for which the IC50 – broadly, the concentration at which inhibition is half-maximal – in experiment [1] was below 20 nM; in experiment [2], above 3000 nM; in experiment [3] it was below 1000 nM; in experiment [4], below 500 nM; in experiment [5] it was below 500 nM.
Turning to `C#Cc1cc(NC(=O)NC2CCCC2)nc2nc(Nc3cccc(CN4CC(CS(C)(=O)=O)C4)c3)ncc12` [Example 85], the IC50 was 20 to 100 nM in experiment [1]; 1000 to 3000 nM in experiment [2]; below 1000 nM in experiment [3]; above 3000 nM in experiment [4]; below 500 nM in experiment [5].
In the same order, the values of `C#Cc1cc(NC(=O)NC2CCCC2)nc2nc(Nc3cccc(CN4CCC(CS(C)(=O)=O)C4)c3)ncc12` (centres unmarked) [Example 86] are 20 to 100 nM, 1000 to 3000 nM, below 1000 nM, above 3000 nM and 500 to 1000 nM.
For `C#Cc1cc(NC(=O)NC2CCCC2)nc2nc(Nc3cccc(CN4CCC(CS(C)(=O)=O)CC4)c3)ncc12` [Example 87], the IC50 in experiment [1] is 20 to 100 nM; in experiment [2], 1000 to 3000 nM; in experiment [3], below 1000 nM; in experiment [4], above 3000 nM; in experiment [5], below 500 nM.
The like results for `C#Cc1cc(NC(=O)NC2CCCC2)nc2nc(Nc3cccc4c3CCN(C)C4)ncc12` [Example 88, 3-Cyclopentyl-1-{5-ethynyl-2-[(2-methyl-3,4-dihydro-1H-isoquinolin-5-yl)amino]pyrido[2,3-d]pyrimidin-7-yl}urea] were, in that order, 100 to 1000 nM, above 3000 nM, above 10000 nM, above 3000 nM and above 3000 nM.
With `C#Cc1cc(NC(=O)NC2CCCC2)nc2nc(Nc3ccccc3N3CCC(CS(C)(=O)=O)C3)ncc12` (centres unmarked) [Example 89], the IC50 is 1000 to 50000 nM in experiment [1]; above 3000 nM in experiment [2]; above 10000 nM in experiment [3]; above 3000 nM in experiment [4]; above 3000 nM in experiment [5].
On to `C#Cc1cc(NC(=O)NC2CCCC2)nc2nc(Nc3ccccc3N3CCC(CS(C)(=O)=O)CC3)ncc12` [Example 90, 3-Cyclopentyl-1-[5-ethynyl-2-({2-[4-(methanesulfonylmethyl)piperidin-1-yl]phenyl}amino)pyrido[2,3-d]pyrimidin-7-yl]urea], for which the IC50 in experiment [1] was 1000 to 50000 nM; in experiment [2] it was above 3000 nM; in experiment [3] it was above 10000 nM; in experiment [4], above 3000 nM; in experiment [5], above 3000 nM.
As to `C#Cc1cc(N2C(=O)NCC23CCCC3)nc2nc(Nc3ccc(N4CCOCC4)cc3)ncc12` [Example 91, 1-(5-Ethynyl-2-{[4-(morpholin-4-yl)phenyl]amino}pyrido[2,3-d]pyrimidin-7-yl)-1,3-diazaspiro[4.4]nonan-2-one], the IC50 in experiment [1] was below 20 nM; in experiment [2], 1000 to 3000 nM; in experiment [3] it was below 1000 nM; in experiment [4] it was 500 to 1000 nM; in experiment [5] it was 1000 to 3000 nM.
`C#Cc1cc(N2C(=O)NCC23CCCC3)nc2nc(Nc3ccc(N4CCN(C5COC5)CC4)cc3)ncc12` [Example 92, 1-[5-Ethynyl-2-({4-[4-(oxetan-3-yl)piperazin-1-yl]phenyl}amino)pyrido[2,3-d]pyrimidin-7-yl]-1,3-diazaspiro[4.4]nonan-2-one]: the concentration for half-maximal inhibition (IC50) in experiment [1] was below 20 nM; in experiment [2], 1000 to 3000 nM; in experiment [3] it was below 1000 nM; in experiment [4] it was 500 to 1000 nM; in experiment [5], 1000 to 3000 nM.
Take `C#Cc1cc(N2C(=O)NCC23CCCC3)nc2nc(Nc3ccc(N(C)C(C)=O)cc3)ncc12` [Example 93, N-{4-[(5-Ethynyl-7-{2-oxo-1,3-diazaspiro[4.4]nonan-1-yl}pyrido[2,3-d]pyrimidin-2-yl)amino]phenyl}-N-methylacetamide]: the IC50 in experiment [1] was 20 to 100 nM; in experiment [2], 1000 to 3000 nM; in experiment [3] it was above 10000 nM; in experiment [4], above 3000 nM; in experiment [5], 1000 to 3000 nM.
As to `C#Cc1cc(N2C(=O)NCC23CCCC3)nc2nc(Nc3ccc(N(C)C(=O)CN(C)C)cc3)ncc12` [Example 94, 2-(Dimethylamino)-N-{4-[(5-ethynyl-7-{2-oxo-1,3-diazaspiro[4.4]nonan-1-yl}pyrido[2,3-d]pyrimidin-2-yl)amino]phenyl}-N-methylacetamide], the IC50 in experiment [1] is 20 to 100 nM; in experiment [2] it was 1000 to 3000 nM; in experiment [3], below 1000 nM; in experiment [4], 1000 to 3000 nM; in experiment [5] it was 1000 to 3000 nM.
With `C#Cc1cc(N2C(=O)NCC23CCCC3)nc2nc(Nc3ccc(OCCN(C)C)cc3)ncc12` [Example 95], the IC50 in experiment [1] is 20 to 100 nM; in experiment [2], 500 to 1000 nM; in experiment [3] it was below 1000 nM; in experiment [4], 1000 to 3000 nM; in experiment [5], 1000 to 3000 nM.
Consider `C#Cc1cc(N2C(=O)NCC23CCCC3)nc2nc(Nc3ccc(S(C)(=O)=O)cc3)ncc12` [Example 96, 1-{5-Ethynyl-2-[(4-methanesulfonylphenyl)amino]pyrido[2,3-d]pyrimidin-7-yl}-1,3-diazaspiro[4.4]nonan-2-one], for which the IC50 in experiment [1] is below 20 nM; in experiment [2] it was 1000 to 3000 nM; in experiment [3] it was below 1000 nM; in experiment [4] it was 500 to 1000 nM; in experiment [5], 1000 to 3000 nM.
For `C#Cc1cc(N2C(=O)NCC23CCCC3)nc2nc(Nc3ccc(S(=O)(=O)N(C)C)cc3)ncc12` [Example 97, 4-[(5-Ethynyl-7-{2-oxo-1,3-diazaspiro[4.4]nonan-1-yl}pyrido[2,3-d]pyrimidin-2-yl)amino]-N,N-dimethylbenzenesulfonamide], the IC50 in experiment [1] is 20 to 100 nM; in experiment [2] it was above 3000 nM; in experiment [3], above 10000 nM; in experiment [4], above 3000 nM; in experiment [5], above 3000 nM.
`C#Cc1cc(N2C(=O)NCC23CCCC3)nc2nc(Nc3ccc(S(=O)(=O)N(C)CCN(C)C)cc3)ncc12` [Example 98, N-[2-(dimethylamino)ethyl]-4-[(5-ethynyl-7-{2-oxo-1,3-diazaspiro[4.4]nonan-1-yl}pyrido[2,3-d]pyrimidin-2-yl)amino]-N-methylbenzenesulfonamide]: the IC50 is 20 to 100 nM in experiment [1]; 1000 to 3000 nM in experiment [2]; below 1000 nM in experiment [3]; above 3000 nM in experiment [4]; above 3000 nM in experiment [5].
For the compound `C#Cc1cc(N2C(=O)NC[C@@H]2C(C)C)nc2nc(Nc3ccc(N4CCN(C)CC4)cc3)ncc12` [Example 99, (5S)-1-(5-Ethynyl-2-{[4-(4-methylpiperazin-1-yl)phenyl]amino}pyrido[2,3-d]pyrimidin-7-yl)-5-isopropylmidazolidin-2-one], the IC50 was below 20 nM in experiment [1]; above 3000 nM in experiment [2]; below 1000 nM in experiment [3]; below 500 nM in experiment [4]; below 500 nM in experiment [5].
Take `C#Cc1cc(N2C(=O)NC[C@H]2C(C)C)nc2nc(Nc3ccc(N4CCN(C)CC4)cc3)ncc12` [Example 100, (5R)-1-(5-Ethynyl-2-{[4-(4-methylpiperazin-1-yl)phenyl]amino}pyrido[2,3-d]pyrimidin-7-yl)-5-isopropylmidazolidin-2-one]: the IC50 is 100 to 1000 nM in experiment [1]; above 3000 nM in experiment [2]; above 10000 nM in experiment [3]; 500 to 1000 nM in experiment [4]; 1000 to 3000 nM in experiment [5].
In the same order, the values of `C#Cc1cc(N2C(=O)NC[C@H]2COC)nc2nc(Nc3ccc(N4CCN(C)CC4)cc3)ncc12` [Example 101, (5S)-1-(5-Ethynyl-2-{[4-(4-methylpiperazin-1-yl)phenyl]amino}pyrido[2,3-d]pyrimidin-7-yl)-5-(methoxymethyl)imidazolidin-2-one] are 20 to 100 nM, above 3000 nM, 1000 to 10000 nM, 500 to 1000 nM and above 3000 nM.
Consider `C#Cc1cc(N2C(=O)N(C)CC2C(C)C)nc2nc(Nc3ccc(N4CCN(C)CC4)cc3)ncc12` (centres unmarked) [Example 102, 3-(5-Ethynyl-2-{[4-(4-methylpiperazin-1-yl)phenyl]amino}pyrido[2,3-d]pyrimidin-7-yl)-4-isopropyl-1-methylmidazolidin-2-one], for which the IC50 in experiment [1] is below 20 nM; in experiment [2], above 3000 nM; in experiment [3], 1000 to 10000 nM; in experiment [4], above 3000 nM; in experiment [5], above 3000 nM.

The values are drawn from patent US20260176265A1 (Cancer Research Technology Limited, priority 2022, published 2026).
